The assay deals with T1, farnesyltransferase (Rattus norvegicus, UniProt Q02293+Q04631).
T1 construct: The enzyme can be purified according to Cell, 62: 81-88 (1990), utilizing steps one, two, and three; from tissue; host or cells: rat brain
T1 sequence (Q02293 whole entry, one chain of several): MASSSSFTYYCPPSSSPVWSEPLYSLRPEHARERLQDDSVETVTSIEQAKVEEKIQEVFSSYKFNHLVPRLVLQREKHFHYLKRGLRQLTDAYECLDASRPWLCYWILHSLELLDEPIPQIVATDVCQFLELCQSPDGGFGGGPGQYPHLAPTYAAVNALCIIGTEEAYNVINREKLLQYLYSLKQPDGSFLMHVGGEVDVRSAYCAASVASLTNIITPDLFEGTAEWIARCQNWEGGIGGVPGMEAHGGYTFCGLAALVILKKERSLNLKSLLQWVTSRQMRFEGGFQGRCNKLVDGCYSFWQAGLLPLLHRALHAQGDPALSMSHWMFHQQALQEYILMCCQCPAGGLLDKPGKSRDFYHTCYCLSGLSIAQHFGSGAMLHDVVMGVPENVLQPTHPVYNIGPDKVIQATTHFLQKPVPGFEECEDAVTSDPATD
Description: Inhibition of farnesyltransferase (3H-farnesyldiphosphate / H-Ras filter assay). The conditions noted are these: test compound at 10^−8 M; 3H-farnesyldiphosphate 0.6 μM, H-Ras 5.0 μM, 37° C., 30 minutes. The class given is biochemical. The source says: The ability of the compounds of the present invention to inhibit farnesyltransferase can be measured according to the method described in J. Biol. Chem., 266: 14603 (1991) or J. Biol. Chem., 270:660-664 (1995). Procedures for determination of the inhibition of farnesylation of the oncogene protein Ras are described in J. Biol. Chem., 266:15575-15578 (1991) and U.S. Pat. No. 5,245,061. Inhibition of rat brain farnesyltransferase can also be measured in vitro using an Amersham Life Science commercial scintillation proximity assay kit and substituting a biotin-K Ras B fragment (0.1 μM final concentration) for the biotin-lamin substrate provided by Amersham. The enzyme can be purified according to Cell, 62: 81-88 (1990), utilizing steps one, two, and three. […] The percent inhibition of the farnesylation caused by the compounds of the present invention (at 10^−6 M) compared to an uninhibited control sample can be evaluated in the same Amersham test system.
The mixture was brought to 37° C., treated with enzyme, incubated for 30 minutes, treated with 1 M HCl/ethanol (1 mL) to stop the reaction, stirred for 15 minutes at room temperature, diluted with ethanol (2 mL), filtered through a 2.5 cm glass microfiber filter (Whatman) with ethanol rinses (4×2 mL). The glass transferred to a scintillation vial and treated with scintillation fluid (5 mL). The radioisotope retained on the glass fiber filter was counted and reflected the activity of the enzyme.
As a reminder, the inhibition is how much of the control response was suppressed. Low readings indicate a response near the control, high ones a response far below the control. In turn, `Cn1cncc1C(O)(COc1ccc(C#N)cc1-c1cc(F)cc(F)c1)c1ccc(C#N)cc1` (stereo not drawn) [Example 67, 6-(2-(4-cyanophenyl)-2-hydroxy-2-(1-methyl-1H-imidazol-5-yl)ethoxy)-3′,5′-difluoro-1,1′-biphenyl-3-carbonitrile] yielded an inhibition at 0.01 µM of 94%.
Next, `Cn1cncc1C(F)(COc1ccc(C#N)cc1-c1cc(F)cc(F)c1)c1ccc(C#N)cc1` (stereo not drawn) [Example 68, 6-(2-(4-cyanophenyl)-2-fluoro-2-(1-methyl-1H-imidazol-5-yl)ethoxy)-3′,5′-difluoro-1,1′-biphenyl-3-carbonitrile]: 91%; `Cn1cncc1C(O)(COc1ccc(C#N)cc1-c1cccc(OC(F)(F)F)c1)c1ccc(C#N)cc1` (stereo not drawn) [Example 69, 6-(2-(4-cyanophenyl)-2-hydroxy-2-(1-methyl-1H-imidazol-5-yl)ethoxy)-3′-(trifluoromethoxy)-1,1′-biphenyl-3-carbonitrile]: 95%.
Next, `Cn1cncc1C(F)(COc1ccc(C#N)cc1-c1cccc(OC(F)(F)F)c1)c1ccc(C#N)cc1` (stereo not drawn) [Example 70, 6-(2-(4-cyanophenyl)-2-fluoro-2-(1-methyl-1H-imidazol-5-yl)ethoxy)-3′-(trifluoromethoxy)-1,1′-biphenyl-3-carbonitrile]: 94%.
For the compound `Cn1cncc1C(O)(COc1ccc(C#N)cc1-c1ccc(Cl)c(Cl)c1)c1ccc(C#N)cc1` (stereo not drawn) [Example 71, 3′,4′-dichloro-6-(2-(4-cyanophenyl)-2-hydroxy-2-(1-methyl-1H-imidazol-5-yl)ethoxy)-1,1′-biphenyl-3-carbonitrile], the inhibition at 0.01 µM is 97%.
`Cn1cncc1C(F)(COc1ccc(C#N)cc1-c1ccc(Cl)c(Cl)c1)c1ccc(C#N)cc1` (stereo not drawn) [Example 72, 3′,4′-dichloro-6-(2-(4-cyanophenyl)-2-fluoro-2-(1-methyl-1H-imidazol-5-yl)ethoxy)-1,1′-biphenyl-3-carbonitrile] registered an inhibition at 0.01 µM of 94%.
Turning to `Cn1cncc1C(O)(COc1ccc(C#N)cc1-c1cc(Cl)cc(Cl)c1)c1ccc(C#N)cc1` (stereo not drawn) [Example 73, 3′,5′-dichloro-6-(2-(4-cyanophenyl)-2-hydroxy-2-(1-methyl-1H-imidazol-5-yl)ethoxy)-1,1′-biphenyl-3-carbonitrile], the inhibition at 0.01 µM turned out to be 96%.
`Cn1cncc1C(F)(COc1ccc(C#N)cc1-c1cc(Cl)cc(Cl)c1)c1ccc(C#N)cc1` (stereo not drawn) [Example 74, 3′,5′-dichloro-6-(2-(4-cyanophenyl)-2-fluoro-2-(1-methyl-1H-imidazol-5-yl)ethoxy)-1,1′-biphenyl-3-carbonitrile] yielded an inhibition at 0.01 µM of 95%.
For `Cn1cncc1C(O)(COc1ccc(C#N)cc1-c1cccc(F)c1)c1ccc(C#N)cc1` (stereo not drawn) [Example 75, 6-(2-(4-cyanophenyl)-2-hydroxy-2-(1-methyl-1H-imidazol-5-yl)ethoxy)-3′-fluoro-1,1′-biphenyl-3-carbonitrile], the inhibition at 0.01 µM was determined as 96%.
Compound `Cn1cncc1C(F)(COc1ccc(C#N)cc1-c1cccc(F)c1)c1ccc(C#N)cc1` (stereo not drawn) [Example 76, 6-(2-(4-cyanophenyl)-2-fluoro-2-(1-methyl-1H-imidazol-5-yl)ethoxy)-3′-fluoro-1,1′-biphenyl-3-carbonitrile] registered an inhibition at 0.01 µM of 95%.
In the case of `Cn1cncc1C(O)(COc1ccc(C#N)cc1-c1cccc(Cl)c1)c1ccc(C#N)cc1` (stereo not drawn) [Example 77, 3′-chloro-6-(2-(4-cyanophenyl)-2-hydroxy-2-(1-methyl-1H-imidazol-5-yl)ethoxy)-1,1′-biphenyl-3-carbonitrile], 0.01 µM produced 98% inhibition.
Compound `Cn1cncc1C(F)(COc1ccc(C#N)cc1-c1cccc(Cl)c1)c1ccc(C#N)cc1` (stereo not drawn) [Example 78, 3′-chloro-6-(2-(4-cyanophenyl)-2-fluoro-2-(1-methyl-1H-imidazol-5-yl)ethoxy)-1,1′-biphenyl-3-carbonitrile] had an inhibition at 0.01 µM of 97%.

Values taken from patent publication US20020115640A1, “Farnesyltransferase inhibitors” (priority 2000, published 2002).
